Active and inactive are the calls of the source. The rule behind the calls is not given here.
Experiments:
Assay type in all cases: functional, cell-based
[1] = test system: HeLa C3; assay: Induction of apoptosis in human HeLaC3 cells assessed as reduction of yellow fluorescent protein/cyan fluorescent protein emission ratio below 3 at 100 uM after 72 hrs by FRET assay
[2] = test system: HeLa C3; assay: Induction of apoptosis in human HeLaC3 cells assessed as reduction of yellow fluorescent protein/cyan fluorescent protein emission ratio below 3 at 50 uM after 72 hrs by FRET assay
[3] = test system: HeLa C3; assay: Induction of apoptosis in human HeLaC3 cells assessed as reduction of yellow fluorescent protein/cyan fluorescent protein emission ratio below 3 at 25 uM after 72 hrs by FRET assay
[4] = test system: HeLa C3; assay: Induction of apoptosis in human HeLaC3 cells assessed as reduction of yellow fluorescent protein/cyan fluorescent protein emission ratio below 3 at 10 uM after 72 hrs by FRET assay
[5] = test system: HeLa C3; assay: Induction of apoptosis in human HeLaC3 cells assessed as morphological changes at 25 uM after 24 to 72 hrs
[6] = test system: HeLa; assay: Cytotoxicity against human HeLa cells after 72 hrs by MTT assay
[7] = test system: HeLa C3; assay: Induction of apoptosis in human HeLaC3 cells assessed as reduction of yellow fluorescent protein/cyan fluorescent protein emission ratio below 3 at 25 uM after 24 hrs by FRET assay
[8] = test system: HeLa C3; assay: Induction of apoptosis in human HeLaC3 cells at 50 to 100 uM after 72 hrs
[9] = test system: HeLa C3; assay: Induction of apoptosis in human HeLaC3 cells assessed as reduction of yellow fluorescent protein/cyan fluorescent protein emission ratio below 3 at 25 uM after 48 hrs by FRET assay
[10] = test system: HeLa; assay: Induction of apoptosis in human HeLa cells assessed as cleavage of PARP at 25 uM after 12 hrs by Western blotting
[11] = test system: HeLa; assay: Induction of apoptosis in human HeLa cells assessed as cleavage of PARP at 25 uM after 36 hrs by Western blotting
[12] = test system: HeLa C3; assay: Induction of apoptosis in human HeLaC3 cells at < 100 uM after 72 hrs
[13] = test system: HeLa C3; assay: Induction of apoptosis in human HeLaC3 cells assessed as morphological changes at 500 nM after 24 to 72 hrs

Structure (SMILES) | Activity [1] | Activity [2] | Activity [3] | Activity [4] | Activity [5] | IC50 [6] [µM] | Activity [7] | Activity [8] | Activity [9] | Activity [10] | Activity [11] | Activity [12] | Activity [13]
CC(C)=CCC/C(C)=C/C[C@H]1C[C@]2(CC=C(C)C)C(=O)[C@@](CC=C(C)C)(C(=O)C(C(=O)c3ccc(O)c(O)c3)=C2O)[C@]1(C)CCC=C(C)C | Active | Active | Active | inactive | Active | – | – | – | – | – | – | – | –
COc1c(O)c(CC=C(C)C)cc2c1Oc1cc(O)c(CC=C(C)C)c(O)c1C(=O)O2 [PAUCINERVIN A] | Active | inactive | inactive | inactive | – | 95.6 | – | – | – | – | – | – | –
C=C(C)[C@@H]1C[C@]23C[C@H](CC=C(C)C)C(C)(C)[C@](CC=C(C)C)(C(=O)C(C(=O)c4ccc(O)c(O)c4)=C2O[C@H]1C=C(C)C)C3=O | Active | Active | Active | inactive | Active | – | Active | – | – | – | – | – | –
CC(C)=CC[C@H]1C[C@@]23C[C@@H](CC=C(C)C)C(C)(C)[C@@](CC=C(C)C)(C(=O)C(C(=O)c4ccc(O)c(O)c4)=C2OC1(C)C)C3=O | inactive | inactive | Active | inactive | Active | – | Active | Active | – | – | – | – | –
COC(=O)c1c(O)cc(O)cc1Oc1c(O)c(OC)cc(CC=C(C)C)c1OC [PAUCINERVIN B] | Active | Active | Active | inactive | Active | 9.5 | – | – | Active | Active | Active | – | –
CC(C)=CCc1cc2c(=O)c3c(O)c(CC=C(C)C)c(O)c(CC=C(C)C)c3oc2c(O)c1O | Active | Active | inactive | inactive | – | – | – | – | – | – | – | – | –
CC(C)=CCc1c(O)cc(O)c2c(=O)c3cc4c(c(O)c3oc12)OC(C)(C)C=C4 | Active | Active | Active | inactive | Active | – | – | – | – | – | – | – | –
CC1=C(C)C(=O)C(CCC(C)(O)CCCC(C)CCCC(C)CCCC(C)C)=C(C)C1=O (configuration not stated) | inactive | inactive | inactive | inactive | – | – | – | – | – | – | – | Active | –
CC(=O)O[C@H]1C(=O)[C@@]2(C)[C@H]([C@H](OC(=O)c3ccccc3)[C@]3(O)C[C@H](OC(=O)[C@H](O)[C@@H](NC(=O)c4ccccc4)c4ccccc4)C(C)=C1C3(C)C)[C@]1(OC(C)=O)CO[C@@H]1C[C@@H]2O | – | – | – | – | – | – | – | – | – | – | – | – | Active
C=CC(C)(C)c1c(OC)c(CC=C(C)C)c(O)c2c(=O)c3ccc(O)c(O)c3oc12 | Active | Active | inactive | inactive | – | – | – | – | – | – | – | – | –
CC(C)=CCC/C(C)=C/CC/C(C)=C/CCC1(C)CCc2c(C)cc(O)c(O)c2O1 (configuration not stated) [PAUCINERVIN D] | Active | Active | inactive | inactive | – | 29.5 | – | – | – | – | – | – | –
CC(C)=CCc1c(O)cc2oc3ccc(O)cc3c(=O)c2c1O | inactive | inactive | inactive | inactive | – | – | – | – | – | – | – | Active | –
CC1=CCCC(C)(C)C1CCC(C)CCCC(C)CCO (configuration not stated) | inactive | inactive | inactive | inactive | – | – | – | – | – | – | – | – | –
CC1(C)C=Cc2c(cc3oc4c(O)c(O)ccc4c(=O)c3c2O)O1 | Active | inactive | Active | Active | Active | – | – | Active | Active | Active | Active | – | –
CC1(C)C=Cc2c(c3ccoc3c3oc4c(O)cccc4c23)O1 [PAUCINERVIN C] | Active | inactive | inactive | inactive | – | 52.5 | – | – | – | – | – | – | –
C=C(C)[C@H]1C/C=C(\C)CC/C=C(\C)CC/C=C(\C)CC1 | Active | inactive | inactive | inactive | – | – | – | – | – | – | – | – | –
CC(C)=CCC/C(C)=C/CC/C(C)=C/CCC1(C)CCc2c(C)ccc(O)c2O1 (configuration not stated) | inactive | Active | inactive | inactive | – | – | – | – | – | – | – | – | –

Reference: ChEMBL document CHEMBL1250438, “Identification and evaluation of apoptotic compounds from Garcinia paucinervis” (Bioorg Med Chem, 2010)
